Test results from patent US20160095810A1, “Cosmetic and/or dermatological compositions containing polyphenols stabilized by perfluoropolyether phosphates and use of perfluoropolyether phosphates as stabilizing agents for polyphenols” (BIO.LO.GA, priority 2003, published 2016).

Columns and labels:
[1] = stability test of the cream, twelve weeks at 45° C., viscosity check and HPLC content; type: physicochemical; settings: cream of Example 1, twelve weeks at 45° C.; nominal tocopherol 5, Greenselect 0.5, Leucoselect 0.5
Description: The cream was packed in plastics containers of 50 ml and subjected to a test to confirm the stability. A series of samples of the cream contained in the said small plastic jars was kept in an oven at 45° C. for twelve weeks, after which the viscosity of the cream was checked and found unaltered with respect to the starting value.
In addition there was the verification of the amount of polyphenols and vitamin E present in the cream at the end of the twelve weeks at 45° C., by means of an HPLC method, using a Macherey-Nagel column, Nucleosil 100-5 C18, packed with 5 μm particles (150×4.6 mm internal diameter), and a pre-column system Nucleosil 100-5 C18, CC 8/4.
The determination of free tocopherol, carried out using methanol as the eluent in isocratic conditions, with a flow rate of 1 ml/min and λ 290 nm, gave a value of 5.2%.
The determination of the polyphenol concentration in the cream was carried out using a mobile phase in binary gradient as eluent, composed of: phase A=0.3% formic acid in water and phase B=methanol; flow rate 1 ml/min; λ=278 nm. In such conditions the Greenselect® has a retention time Rt=22.84 min and the Leucoselect® Rt=6.53 min.

[2] = stability of ascorbic acid in the cream, UV determination at 266.5 nm; type: physicochemical; settings: cream of Example 3, 4 months at room temperature then 45° C. for one month
Description: The stability of the ascorbic acid contained in the cream was determined as follows.
A series of samples of the cream contained in the said small plastic jars was kept for a period of 4 months at room temperature and then in an oven at 45° C. for one month, after which the ascorbic acid content of the cream was checked.
In order to determine the ascorbic acid content, 100 mg of cream were diluted in 100 ml of 0.1 M phosphate buffer at pH 6, and the thus obtained suspension was magnetically stirred in the dark for 20 minutes. Thereafter, 30 ml of the suspension were transferred to a 50 ml centrifuge tube and 15 ml of chloroform were added. The tube was shaken for 10 minutes and then centrifuged at 6000 rpm for 5 minutes. The upper aqueous phase was directly analyzed with a UV Vis Jasco V-350 spectrophotometer, using phosphate buffer as a blank and the ascorbic acid peak at 266.5 nm was measured.
The ascorbic acid concentration was determined by means of a calibration curve made from standard solutions containing 1.0, 1.5 and 2.0 mg ascorbic acid/100 ml phosphate buffer.

Cc1c(C)c2c(c(C)c1O)CC[C@@](C)(CCC[C@H](C)CCC[C@H](C)CCCC(C)C)O2 [free tocopherol, Tocopherol]
amount present in the cream at the end of storage (HPLC) [1]: 5.2%

O=C1O[C@H]([C@@H](O)CO)C(O)=C1O [ascorbic acid, Ascorbic acid]
ascorbic acid lost by the end of the storage period [2]: 7.8% | ascorbic acid concentration from the calibration curve ([2]; nominal 2 mg/100 ml): 1.844 mg/100 ml
